Laboratory results: the CheMixHub viscosity set
Values joined by “and” are separate entries in the source; they are usually repeats but may differ in a detail not shown here. Identical values can stand only once.

Legend:
[1] = xn = mol fraction of the nth substance listed

Cc1ccc(C(C)C)cc1
Settings	viscosity [mPa·s]
293.15 K, 101 kPa	0.826

CCCCC(C)O (stereo not drawn)
viscosity
Settings	298.15 K	303.15 K	308.15 K	313.15 K	318.15 K
100 kPa	–	3.29 mPa·s	2.71 mPa·s	2.28 mPa·s	1.93 mPa·s
101.33 kPa	4.047 mPa·s and 4.047 mPa·s	–	–	–	–

CC(CC(C)(C)C)CC(C)(C)C
viscosity [mPa·s]
Settings	293.15 K	298.15 K	313.15 K	323.15 K
101.33 kPa	–	1.217	–	–
102 kPa	1.32	–	0.956	0.828

CCCCCCc1ccccc1
Settings	viscosity [mPa·s]
303.15 K, 102 kPa	1.4

CCC(C)(C)O
viscosity
Settings	298.15 K	303.15 K	308.15 K	313.15 K	318.15 K	323.15 K
101 kPa	3.506 mPa·s and 3.532 mPa·s and 4.413 mPa·s	–	–	–	1.681 mPa·s	–
101.3 kPa	3.52 mPa·s	2.87 mPa·s	2.37 mPa·s	1.96 mPa·s	–	–
101.33 kPa	–	2.854 mPa·s	–	1.976 mPa·s	–	1.416 mPa·s

CC[N+](C)(CC)CCOC.O=S(=O)([N-]S(=O)(=O)C(F)(F)F)C(F)(F)F
101 kPa
Settings	viscosity [mPa·s]
293.15 K	162.2
298.15 K	119.2
303.15 K	89.7
308.15 K	67.72
313.15 K	53.02
318.15 K	40.98
323.15 K	33.06

CCCCOC(=O)c1ccccc1C(=O)OCCCC
Settings	viscosity [mPa·s]
303.15 K, 101.33 kPa	13.33

CCCCN(CCCC)CCCC
viscosity
Settings	293.15 K	298.15 K	303.15 K	308.15 K	313.15 K	318.15 K	323.15 K
100 kPa	–	–	1.14 mPa·s and 1 mPa·s	1.09 mPa·s	–	–	–
101 kPa	–	1.273 mPa·s	1.157 mPa·s and 1.155 mPa·s	1.064 mPa·s and 1.069 mPa·s	0.9845 mPa·s and 1 mPa·s	0.9086 mPa·s	0.8422 mPa·s
101.3 kPa	–	–	–	–	0.9974 mPa·s	–	–
101.33 kPa	1.45 mPa·s	1.28 mPa·s	–	1.07 mPa·s	0.99 mPa·s	–	0.863 mPa·s

CCCC[P+](CC)(CC)CC.N#Cc1ccc[n-]1
100 kPa
Settings	viscosity [mPa·s]
293.15 K	187
298.15 K	137
303.15 K	104
313.15 K	62

FC(F)(F)c1ccccc1
viscosity [mPa·s]
Settings	298.15 K	323.15 K
101 kPa	0.53	0.46
101.33 kPa	0.5524	–

C=CC#N
Settings	viscosity
293.15 K, 101 kPa	0.362 mPa·s
298.15 K, 101 kPa	0.342 mPa·s
298.15 K, 101.33 kPa	0.339 mPa·s
303.15 K, 101 kPa	0.325 mPa·s
303.15 K, 101.3 kPa	0.3111 mPa·s and 0.3111 mPa·s
303.15 K, 101.33 kPa	0.324 mPa·s and 0.324 mPa·s and 0.326 mPa·s
307.4 K, 101.33 kPa	0.76 mPa·s and 0.53 mPa·s and 0.584 mPa·s
308.15 K, 101 kPa	0.3296 mPa·s
313.15 K, 101 kPa	0.305 mPa·s
323.15 K, 101 kPa	0.287 mPa·s

CCCCC(C)CC (stereo not drawn)
100 kPa
Settings	viscosity [mPa·s]
293.15 K	0.512
298.15 K	0.485
303.15 K	0.462
308.15 K	0.44
313.15 K	0.422

[2H]O[2H]
101 kPa
Settings	viscosity
293.15 K	1.253 mPa·s
297.15 K	1.128 mPa·s
299.15 K	1.072 mPa·s
300.15 K	0.994 mPa·s and 1.05 mPa·s
301.15 K	1.026 mPa·s
302.15 K	1 mPa·s
303.1 K	0.973 mPa·s
303.15 K	0.981 mPa·s
304.15 K	0.964 mPa·s
305.15 K	0.884 mPa·s and 0.942 mPa·s
306.15 K	0.924 mPa·s
307.15 K	0.901 mPa·s
308.15 K	0.879 mPa·s
309.15 K	0.861 mPa·s
310.15 K	0.842 mPa·s
311.15 K	0.826 mPa·s
312.15 K	0.809 mPa·s
313.1 K	0.785 mPa·s
313.15 K	0.791 mPa·s
323.1 K	0.649 mPa·s

CC[n+]1cc[nH]c1.O=S(=O)([N-]S(=O)(=O)C(F)(F)F)C(F)(F)F
Settings	viscosity [mPa·s]
297.55 K, 101 kPa	57.1

COC(C)OC
Settings	viscosity [mPa·s]
298.15 K, 101 kPa	4.04

CC(C)(N)CO
viscosity
Settings	298.15 K	303.15 K	308.15 K	313.15 K	318.15 K	323.15 K
100 kPa	132.3 mPa·s	98.48 mPa·s	69.98 mPa·s	46.99 mPa·s	32.2 mPa·s	24.45 mPa·s
101 kPa	–	89 mPa·s and 99.48 mPa·s	60.8 mPa·s	43.7 mPa·s and 47.25 mPa·s	32.2 mPa·s	23.05 mPa·s and 24.33 mPa·s

CN(C)c1ccccc1
viscosity
Settings	100 kPa	101 kPa	101.3 kPa
293.15 K	1.415 mPa·s	–	–
298 K	–	1.283 mPa·s	1.282 mPa·s
298.15 K	1.302 mPa·s	–	–
303 K	–	1.18 mPa·s	1.177 mPa·s
303.15 K	1.206 mPa·s	1.18 mPa·s and 1.177 mPa·s and 1.203 mPa·s	–
308 K	–	1.096 mPa·s	1.1 mPa·s
308.15 K	1.123 mPa·s	–	–
313 K	–	1.02 mPa·s	1.02 mPa·s
313.15 K	1.056 mPa·s	–	–
313.35 K	–	1.021 mPa·s	–
318 K	–	0.968 mPa·s	0.967 mPa·s
318.15 K	0.9805 mPa·s	0.931 mPa·s and 0.8294 mPa·s and 0.9484 mPa·s	–
323.15 K	0.9197 mPa·s	0.854 mPa·s	–

Cn1ccnc1
viscosity
Settings	298.15 K	308.15 K	318.15 K
100 kPa	1.778 mPa·s and 1.778 mPa·s	1.482 mPa·s and 1.482 mPa·s	1.267 mPa·s and 1.267 mPa·s
101 kPa	1.68 mPa·s	1.382 mPa·s and 1.415 mPa·s	1.213 mPa·s

O=C1CCCCCO1
101 kPa
Settings	viscosity [mPa·s]
303.15 K	4.885
308.15 K	4.324
313.15 K	3.818
318.15 K	3.42

CC(CC(C)(C)C)CP(=O)([O-])CC(C)CC(C)(C)C.CCCCCCCCCCCCCC[P+](CCCCCC)(CCCCCC)CCCCCC
101 kPa
Settings	viscosity [mPa·s]
303.15 K	757
313.15 K	439
323.15 K	264

CCCCN(CCCC)CCCC + CCCCOCCO
viscosity [mPa·s], [1], 100 kPa
Settings	298.15 K	303.15 K	308.15 K
x2 = 0.05	1.31	1.19	1.12
x2 = 0.1004	1.37	1.23	1.15
x2 = 0.1502	1.43	1.28	1.19
x2 = 0.2006	1.49	1.33	1.23
x2 = 0.2999	1.62	1.43	1.32
x2 = 0.3999	1.76	1.54	1.43
x2 = 0.5046	1.93	1.69	1.55
x2 = 0.6	2.1	1.83	1.67
x2 = 0.7	2.29	1.99	1.8
x2 = 0.8	2.5	2.16	1.96
x2 = 0.8997	2.7	2.36	2.14
x2 = 0.9498	2.79	2.43	2.21

CN(C)c1ccccc1 + O=C1CCCCC1
viscosity [mPa·s], [1], 101 kPa
Settings	303.15 K	308.15 K
x1 = 0.0699	1.724	1.569
x1 = 0.1269	1.658	1.502
x1 = 0.1906	1.587	1.432
x1 = 0.2652	1.512	1.353
x1 = 0.3251	1.457	1.299
x1 = 0.4012	1.395	1.245
x1 = 0.4852	1.336	1.195
x1 = 0.5602	1.292	1.161
x1 = 0.6421	1.254	1.136
x1 = 0.7014	1.231	1.124
x1 = 0.7745	1.209	1.114
x1 = 0.8512	1.192	1.113
x1 = 0.9212	1.18	1.112
